The structures appear in SMILES notation.

`O=C1C=CC(O)(c2cccc3ccccc23)C=C1`: the melting point is 117 to 118 °C. To `O=C1c2cc3nnn(Cn4cc(Br)cn4)c(=O)c3cc2OC2CCCN12` (stereo unspecified) belongs 180 to 181 °C.

The molecule `CN(CCCC(C(N)=O)(c1ccccc1)c1ccccc1)CCc1ccc(CN)cc1` came in with a melting point of 139 to 142 °C. For the molecule `CCOC(=O)C(Cl)(Cl)CCCCCCCCCCCCS(=O)(=O)c1ccccc1`, the melting point is 69 to 71 °C.

In turn, `CNCc1ccc2cc(OC)ccc2c1` showed a melting point of 96 to 104 °C. Consider `CCOC(=O)c1c(C)cc2cnc(Cc3ccccc3)nc2c1C`, for which the melting point lay within 77 to 79 °C. As to `COc1ccc(-c2ccc3[nH]c4c(c3c2)CCN(C(=O)c2ccccc2)CC4)cc1`, the melting point is 140 to 145 °C. The molecule `OCC(O)Cc1nccn1CCCCc1ccc(OCc2coc(/C=C/c3ccc(C(F)(F)F)cc3)n2)cc1` (stereo unspecified) returned a melting point of 142 to 143 °C.

Turning to `CC1(C)Cc2ccc(C#N)cc2N(C(=O)Nc2cccnc2)C1`, the melting point was 164 to 166 °C.

`Cc1cc2c(c(C(O)=S)c1)OCCO2`: the melting point is 181 to 183 °C.

`CCOC=C(C=O)c1ccc(Br)cc1`: the melting point lay in the range of 152 to 156 °C. To `O=C(NCCCl)Oc1ccccc1` belongs 65 to 67 °C; to `O=C(CBr)C(O)(c1ccccc1)C1CCC1` (stereo unspecified), 79 to 80 °C. For `CC(C)c1ccc2c(c1)C=C(C(=O)O)CC2`, the melting point was in the range of 160 to 162 °C. In the case of `CCN(CC)C(=O)c1c(C=O)ccnc1OC` it was less than 50 °C. For `O=C(O)c1cc(NCc2ccc(C(F)(F)F)cc2)ccc1O`, the melting point is greater than 188 °C.

On to `CN(Cc1cccc2c1C(=O)N(C1CCC(=O)NC1=O)C2=O)C(=O)Nc1ccccc1` (stereo unspecified), for which the melting point fell in the range of 226 to 228 °C.

Regarding `COc1ccc(-c2cc(-c3ccccc3)[nH]c2C(=O)NCc2ccc(C(=O)NO)cc2)cc1OC`, the melting point was 134 to 136 °C.

With `CC(C)(COc1nn2ccnc2c2c1CCCC2)CS(N)(=O)=O`, the melting point lay in the range of 198 to 200 °C. `O=[N+]([O-])c1cc2c(c3c([N+](=O)[O-])cccc13)C(CCl)CN2` (stereo unspecified) displayed a melting point of 130 to 131 °C. `CN(c1cccc2cc(C3=NCC(C)(CCN4CCOCC4)S3)[nH]c12)S(=O)(=O)c1cccs1` (stereo unspecified) showed a melting point of 154 to 155 °C. In turn, `CNC(=S)C1(c2cnccn2)CCCS1` (stereo unspecified) yielded a melting point of 127 °C.

As for `CC(O)c1ccc(C(C)Oc2cncc(C(=O)Nc3ccc(C#N)cc3)c2)cc1` (stereo unspecified), the melting point fell in the range of 179 to 181 °C. The molecule `Nc1ccccc1NC(=O)c1cc2cc(OCc3ccccn3)ccc2s1` registered a melting point of 205 to 207 °C.

Molecule `COCCc1nc2c(N)nc3ccccc3c2n1CCOCCNC(=O)Nc1ccccc1` gave a melting point of 171 to 174 °C.

Molecule `COc1cc(C)nc(OC)c1NC(=O)CN1CCN(CCSc2nc3ccccc3o2)CC1` registered a melting point of 113 to 115 °C. In the case of `CSC1=Nc2cc(Cl)ccc2N(C)c2cscc21` it was 156 to 158 °C; in that of `Cc1ccc(-n2cccc2C=O)c(Cl)c1`, 111 to 112 °C; in that of `NS(=O)(=O)c1cc(Br)cc(C(F)(F)F)c1`, 174 to 175 °C. To `COc1ccc2ccc3c(c2c1)C(CC#N)CCO3` (stereo unspecified) belongs 122 to 123 °C. For the molecule `COCc1cc(O[C@@H]2c3ccccc3C[C@H]2O)c2nc(C)c(C)n2c1` (relative stereo), the melting point was 142 to 143 °C. In the case of `CCCOc1ccc(-c2ncc(C#N)cn2)cc1` it was 193 to 194 °C.

`COC(=O)[C@@H]1C[C@H](C(=O)OC(C)(C)C)N(C(=O)CNC(=O)OC(C)(C)C)[C@@H]1c1ccccc1F` (racemic) yielded a melting point of 142 °C. The molecule `O=S(=O)(CCS(=O)(=O)c1nc(-c2ccc(F)cc2)c(-c2ccc(F)cc2)[nH]1)c1nc(-c2ccc(F)cc2)c(-c2ccc(F)cc2)[nH]1` showed a melting point of 246 to 248 °C. For the molecule `O=S1(=O)CC(c2ccc(F)cc2)CN1` (stereo unspecified), the melting point was determined as 155 °C. `COc1cccc(CC(CS)C(=O)Nc2c[nH]c(C(=O)O)c2)c1` (stereo unspecified): the melting point is 153 to 158 °C. To `CCOC(=O)[C@H](NS(=O)(=O)c1ccc(C)cc1)[C@@H]1CO[C@@H](c2ccccc2)C1` belongs 97 to 99 °C. The molecule `N#Cc1cccc(-c2ccco2)n1` returned a melting point of 90.2 to 90.3 °C.

`CCCC(=O)NCCC1=CCc2cc(F)c(OC)cc21` returned a melting point of 90 to 92 °C. `COc1ccc(S(=O)(=O)O)cc1OC(=O)c1ccccc1`: the melting point lay within 139 to 140 °C. Regarding `CCCCNC(=O)NS(=O)(=O)c1ccccc1CCl`, the melting point fell in the range of 104 to 106 °C.

`N=C(N)Nc1nc2ccc(C(F)(F)F)cc2[nH]1` showed a melting point of 206 to 209 °C. `COC(=O)C(C)(C)Cc1[nH]c2cc(OC)ccc2c1SC(C)(C)C`: the melting point turned out to be 133 °C. `COC(=O)C(C(=O)OC)c1ccccc1COc1ccccc1C`: the melting point fell in the range of 99 to 103 °C. Regarding `Cc1cc(Oc2cccc(C(F)(F)F)c2)nn1C(N)=O`, the melting point fell in the range of 76 to 77 °C. Regarding `CCCN(CC1CC1)C(=O)c1c2c(nn1C)N(c1c(C)cc(C)cc1Cl)CCC2`, the melting point was 121 to 122 °C.

As for `Cc1nccn1-c1nc(-c2ccc(Cl)cc2)c(CCCOc2ccccc2O)o1`, the melting point lay in the range of 110 to 111 °C. `COc1cc(CSc2ccccn2)nc(N)n1`: the melting point lay within 115 to 116 °C. Molecule `OCC1OC(n2cnc3c(NCCC(c4ccccc4)c4ccccc4)ncnc32)C(O)C1O` (stereo unspecified) registered a melting point of 103 to 118 °C.

In turn, `CCCc1nc(C(C)=O)c(C(=O)OCC)[nH]1` showed a melting point of 76 to 78 °C. To `CC(C)NCC(O)COc1nccnc1Cl` (stereo unspecified) belongs 99 to 100 °C; to `O=C(Nc1ccc(Oc2ccc(C(F)(F)F)cc2)cc1)Nc1nonc1-c1ccc(Cl)cc1`, 208 °C; to `Cn1c(C(F)(F)F)cc(=O)n(-c2ccc3snc(N4CCOCC4)c3c2)c1=O`, 200 to 205 °C. Take `CC[C@H](C)C(OCc1ccccc1F)[C@H]1[C@H]([N+](=O)[O-])[C@H](c2ccsc2)N[C@@H]1C(=O)NCCC(=O)O` (stereo partly specified): the melting point lay within 113 to 114 °C. As to `O=[N+]([O-])c1cccc(Sc2ccc(-c3ccc(Br)cc3)s2)c1`, the melting point fell in the range of 120 to 122 °C. Regarding `O=C1N(Cc2ccc(OC(F)(F)F)cc2)C(=NCC(F)(F)F)SCN1c1ccccc1`, the melting point fell in the range of 54 to 56 °C. In the case of `Cc1cc(-c2ccc(C(F)(F)F)cc2)nc(-c2ccnc(-c3cccc(S(N)(=O)=O)c3)c2)n1` it was 218 °C; in that of `CCC(Oc1cc(Cl)cc(Cl)c1)C(=O)NC(C)(C)C#CCOC` (stereo unspecified), 103 to 104 °C; in that of `COCC1CN(c2ccc(C3CCC(OCCC#N)CC3)cc2)C(=O)O1` (racemic), 57 to 59 °C. `O=c1ccoc(C=Cc2ccc(O)cc2)c1` returned a melting point of 198 to 201 °C. The molecule `CC(=O)N(c1cccc(C(F)(F)F)c1)c1cccc(C(F)(F)F)c1` showed a melting point of 73 to 74 °C. `CCCCOc1ccccc1C=CC(=O)c1ccc(OC)c(OC)c1OC`: the melting point lay within 129 to 130 °C. On to `Cn1c(C2=CC(=O)c3ccccc3C2=O)ccc1C1=CC(=O)c2ccccc2C1=O`, for which the melting point is 320 to 321 °C. With `OC1CSC(Oc2ccc(-c3ccc(C(F)(F)F)cc3)nc2)C(O)C1O` (stereo unspecified), the melting point is 194 to 195 °C. To `COc1ccc2nc(-c3ccc(N)c(I)c3)sc2c1` belongs 179 to 181 °C.

As to `CC(CCc1ccc(C(C)C(=O)O)cc1)C(=O)O` (stereo unspecified), the melting point lay within 107 to 109 °C.

By melting point is commonly meant the temperature of the solid-liquid transition.

For the origin of these results see a melting point compilation (Tetko et al.; mined from patent text by program, amines drawn as free bases though some values may be those of a salt).
